Key:
barnyard grass [1] = assay: Test Example 5: herbicidal effect by foliage application, plastic box (Table 20, symbol H); assay type: in vivo, barnyard grass (Echinochloa crus-galli); settings: foliage application, 320 g/ha, evaluated three weeks after application
Outline: (§1)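 Plants sown in sterilized diluvial soil and grown 14 days in a greenhouse at 25° C to 30° C, then sprayed on the foliage with the compound's emulsion diluted in water to a predetermined herbicide amount. Injury to weeds and crops scored three weeks after application on a visual rating scale.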

redroot pigweed [2] = assay: Test Example 5: herbicidal effect by foliage application, plastic box (Table 20, symbol N); assay type: in vivo, redroot pigweed (Amaranthus retroflexus); settings: foliage application, 320 g/ha, evaluated three weeks after application
Outline: as §1

Chinese sprangletop = assay: Test Example 3: herbicidal effect by foliage application, Wagner pot (Table 18, symbol D); assay type: in vivo, chinese sprangletop (Leptochloa chinensis)
Outline: (§2)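 Plants were sown in alluvial soil held under 0.1–0.5 cm standing water and grown 14 days in a greenhouse at 25–30 °C. An emulsifiable formulation, water-diluted to the set dose, was then sprayed onto the foliage, and effects were scored three weeks later using previously defined criteria.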

redroot pigweed [3] = assay: Test Example 4: herbicidal effect by soil treatment (Table 19, symbol N); assay type: in vivo, redroot pigweed (Amaranthus retroflexus)
Outline: (§3)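 Seeds were sown in sterilized diluvial soil and covered with about 1.5 cm of soil. An emulsion formulation diluted with water to a predetermined herbicide amount was sprayed evenly onto the soil surface. Plants grew in a greenhouse at 25° C. to 30° C., and the effect was scored three weeks after application using criteria from an earlier test.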

blackgrass [4] = assay: Test Example 5: herbicidal effect by foliage application, plastic box (Table 20, symbol J); assay type: in vivo, blackgrass (Alopecurus myosuroides); settings: foliage application, 320 g/ha, evaluated three weeks after application
Outline: as §1

green foxtail [5] = assay: Test Example 5: herbicidal effect by foliage application, plastic box (Table 20, symbol G); assay type: in vivo, green foxtail (Setaria viridis); settings: foliage application, 320 g/ha, evaluated three weeks after application
Outline: as §1

rice flat sedge = assay: Test Example 3: herbicidal effect by foliage application, Wagner pot (Table 18, symbol E); assay type: in vivo, rice flat sedge (Cyperus iria)
Outline: as §2

wild oat [6] = assay: Test Example 5: herbicidal effect by foliage application, plastic box (Table 20, symbol I); assay type: in vivo, wild oat (Avena fatua); settings: foliage application, 320 g/ha, evaluated three weeks after application
Outline: as §1

windgrass [7] = assay: Test Example 5: herbicidal effect by foliage application, plastic box (Table 20, symbol L); assay type: in vivo, windgrass (Apera spica-venti); settings: foliage application, 320 g/ha, evaluated three weeks after application
Outline: as §1

southern crabgrass [8] = assay: Test Example 4: herbicidal effect by soil treatment (Table 19, symbol F); assay type: in vivo, southern crabgrass (Digitaria ciliaris)
Outline: as §3

chickweed [9] = assay: Test Example 5: herbicidal effect by foliage application, plastic box (Table 20, symbol P); assay type: in vivo, common chickweed (Stellaria media); settings: foliage application, 320 g/ha, evaluated three weeks after application
Outline: as §1

oval-leafed pondweed = assay: Test Example 1: herbicidal activity, application before weed generation under submerged conditions (Table 16, symbol C); assay type: in vivo, oval-leafed pondweed (Monochoria vaginalis); settings: 320 g/ha applied herbicide
Outline: (§4)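 Emulsion formulation, water-diluted to set dose, was put onto the flooded surface (4 cm depth, alluvial soil) the same day weeds were sown and 2.5-leaf rice transplanted. After 3 weeks at 25-30 °C under glass, each species was rated 0 (≤5% kill) to 5 (≥90% kill).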

lambsquarters [10] = assay: Test Example 4: herbicidal effect by soil treatment (Table 19, symbol O); assay type: in vivo, lambsquarters (Chenopodium album)
Outline: as §3

false cleavers = assay: Test Example 5: herbicidal effect by foliage application, plastic box (Table 20, symbol Q); assay type: in vivo, false cleavers (Galium spurium); settings: foliage application, 320 g/ha, evaluated three weeks after application
Outline: as §1

persian speedwell [11] = assay: Test Example 4: herbicidal effect by soil treatment (Table 19, symbol R); assay type: in vivo, Persian speedwell (Veronica persica)
Outline: as §3

persian speedwell [12] = assay: Test Example 5: herbicidal effect by foliage application, plastic box (Table 20, symbol R); assay type: in vivo, Persian speedwell (Veronica persica); settings: foliage application, 320 g/ha, evaluated three weeks after application
Outline: as §1

velvetleaf [13] = assay: Test Example 4: herbicidal effect by soil treatment (Table 19, symbol M); assay type: in vivo, velvetleaf (Abutilon theophrasti)
Outline: as §3

velvetleaf [14] = assay: Test Example 5: herbicidal effect by foliage application, plastic box (Table 20, symbol M); assay type: in vivo, velvetleaf (Abutilon theophrasti); settings: foliage application, 320 g/ha, evaluated three weeks after application
Outline: as §1

Italian ryegrass [15] = assay: Test Example 4: herbicidal effect by soil treatment (Table 19, symbol K); assay type: in vivo, Italian ryegrass (Lolium multiflorum)
Outline: as §3

southern crabgrass [16] = assay: Test Example 5: herbicidal effect by foliage application, plastic box (Table 20, symbol F); assay type: in vivo, southern crabgrass (Digitaria ciliaris); settings: foliage application, 320 g/ha, evaluated three weeks after application
Outline: as §1

green foxtail [17] = assay: Test Example 4: herbicidal effect by soil treatment (Table 19, symbol G); assay type: in vivo, green foxtail (Setaria viridis)
Outline: as §3

blackgrass [18] = assay: Test Example 4: herbicidal effect by soil treatment (Table 19, symbol J); assay type: in vivo, blackgrass (Alopecurus myosuroides)
Outline: as §3

barnyard grass [19] = assay: Test Example 4: herbicidal effect by soil treatment (Table 19, symbol H); assay type: in vivo, barnyard grass (Echinochloa crus-galli)
Outline: as §3

barnyard grass [20] = assay: Test Example 3: herbicidal effect by foliage application, Wagner pot (Table 18, symbol H); assay type: in vivo, barnyard grass (Echinochloa crus-galli)
Outline: as §2

Italian ryegrass [21] = assay: Test Example 5: herbicidal effect by foliage application, plastic box (Table 20, symbol K); assay type: in vivo, Italian ryegrass (Lolium multiflorum); settings: foliage application, 320 g/ha, evaluated three weeks after application
Outline: as §1

late watergrass = assay: Test Example 1: herbicidal activity, application before weed generation under submerged conditions (Table 16, symbol A); assay type: in vivo, late watergrass (Echinochloa oryzicola); settings: 320 g/ha applied herbicide
Outline: as §4

wild oat [22] = assay: Test Example 4: herbicidal effect by soil treatment (Table 19, symbol I); assay type: in vivo, wild oat (Avena fatua)
Outline: as §3

Japanese bulrush = assay: Test Example 1: herbicidal activity, application before weed generation under submerged conditions (Table 16, symbol B); assay type: in vivo, Japanese bulrush (Schoenoplectus juncoides); settings: 320 g/ha applied herbicide
Outline: as §4

lambsquarters [23] = assay: Test Example 5: herbicidal effect by foliage application, plastic box (Table 20, symbol O); assay type: in vivo, lambsquarters (Chenopodium album); settings: foliage application, 320 g/ha, evaluated three weeks after application
Outline: as §1

chickweed [24] = assay: Test Example 4: herbicidal effect by soil treatment (Table 19, symbol P); assay type: in vivo, common chickweed (Stellaria media)
Outline: as §3

windgrass [25] = assay: Test Example 4: herbicidal effect by soil treatment (Table 19, symbol L); assay type: in vivo, windgrass (Apera spica-venti)
Outline: as §3

[26] = amount of applied herbicide 320 g/ha

Row | Compound | herbicidal effect on H: barnyard grass (barnyard grass [1]) | herbicidal effect on N: redroot pigweed (redroot pigweed [2]) | herbicidal effect on J: blackgrass (blackgrass [4]) | herbicidal effect on G: green foxtail (green foxtail [5]) | herbicidal effect on I: wild oat (wild oat [6]) | herbicidal effect on L: windgrass (windgrass [7]) | herbicidal effect on P: chickweed (chickweed [9]) | Herbicidal effect on C: oval-leafed pondweed (grade 0-5) (oval-leafed pondweed) | herbicidal effect on Q: false cleavers (false cleavers) | herbicidal effect on R: persian speedwell (persian speedwell [12]) | herbicidal effect on M: velvetleaf (velvetleaf [14]) | herbicidal effect on F: southern crabgrass (southern crabgrass [16]) | herbicidal effect on K: Italian ryegrass (Italian ryegrass [21]) | Herbicidal effect on A: late watergrass (grade 0-5) (late watergrass) | Herbicidal effect on B: Japanese bulrush (grade 0-5) (Japanese bulrush) | herbicidal effect on O: lambsquarters (lambsquarters [23]) | also measured
1 | COc1cc(F)ccc1-c1sc2ccc(F)cc2c1-c1c(O)c(C)nn(C)c1=O [2-083] | 5 (Herbicidal rate of 90% or more (almost completely withered)) | 5 (Herbicidal rate of 90% or more (almost completely withered)) | 5 (Herbicidal rate of 90% or more (almost completely withered)) | 5 (Herbicidal rate of 90% or more (almost completely withered)) | 5 (Herbicidal rate of 90% or more (almost completely withered)) | 5 (Herbicidal rate of 90% or more (almost completely withered)) | 5 (Herbicidal rate of 90% or more (almost completely withered)) | 3 (Herbicidal rate of 40% or more and less than 70%) | 5 (Herbicidal rate of 90% or more (almost completely withered)) | 5 (Herbicidal rate of 90% or more (almost completely withered)) | 5 (Herbicidal rate of 90% or more (almost completely withered)) | 4 (Herbicidal rate of 70% or more and less than 90%) | 4 (Herbicidal rate of 70% or more and less than 90%) | 2 (Herbicidal rate of 20% or more and less than 40%) | 1 (Herbicidal rate of 5% or more and less than 20%) | 5 (Herbicidal rate of 90% or more (almost completely withered)) | herbicidal effect on D (Chinese sprangletop), rating 0-5 (Chinese sprangletop; 320 g/ha): 4 (Herbicidal rate of 70% or more and less than 90%); herbicidal effect rating, N: redroot pigweed (redroot pigweed [3]; 320 g/ha): 5 (Herbicidal rate of 90% or more (almost completely withered)); herbicidal effect on E (rice flat sedge), rating 0-5 (rice flat sedge; 320 g/ha): 5 (Herbicidal rate of 90% or more (almost completely withered)); herbicidal effect rating, F: southern crabgrass (southern crabgrass [8]; 320 g/ha): 4 (Herbicidal rate of 70% or more and less than 90%); herbicidal effect rating, O: lambsquarters (lambsquarters [10]; 320 g/ha): 5 (Herbicidal rate of 90% or more (almost completely withered)); herbicidal effect rating, R: persian speedwell (persian speedwell [11]; 320 g/ha): 4 (Herbicidal rate of 70% or more and less than 90%); herbicidal effect rating, M: velvetleaf (velvetleaf [13]; 320 g/ha): 2 (Herbicidal rate of 20% or more and less than 40%); herbicidal effect rating, K: Italian ryegrass (Italian ryegrass [15]; 320 g/ha): 0 (Herbicidal rate of 5% or less (almost no effect)); herbicidal effect rating, G: green foxtail (green foxtail [17]; 320 g/ha): 2 (Herbicidal rate of 20% or more and less than 40%); herbicidal effect rating, J: blackgrass (blackgrass [18]; 320 g/ha): 5 (Herbicidal rate of 90% or more (almost completely withered)); herbicidal effect rating, H: barnyard grass (barnyard grass [19]; 320 g/ha): 1 (Herbicidal rate of 5% or more and less than 20%); herbicidal effect on H (barnyard grass), rating 0-5 (barnyard grass [20]; 320 g/ha): 5 (Herbicidal rate of 90% or more (almost completely withered)); herbicidal effect rating, I: wild oat (wild oat [22]; 320 g/ha): 3 (Herbicidal rate of 40% or more and less than 70%); herbicidal effect rating, P: chickweed (chickweed [24]; 320 g/ha): 4 (Herbicidal rate of 70% or more and less than 90%); herbicidal effect rating, L: windgrass (windgrass [25]; 320 g/ha): 4 (Herbicidal rate of 70% or more and less than 90%)
2 | Cc1nn(C)c(=O)c(-c2c(-c3ccc4c(c3)OCO4)sc3ccc(Cl)cc23)c1O [2-125] | 2 (Herbicidal rate of 20% or more and less than 40%) | 3 (Herbicidal rate of 40% or more and less than 70%) | 0 (Herbicidal rate of 5% or less (almost no effect)) | 0 (Herbicidal rate of 5% or less (almost no effect)) | 0 (Herbicidal rate of 5% or less (almost no effect)) | 0 (Herbicidal rate of 5% or less (almost no effect)) | 5 (Herbicidal rate of 90% or more (almost completely withered)) | 0 (Herbicidal rate of 5% or less (almost no effect)) | 3 (Herbicidal rate of 40% or more and less than 70%) | 5 (Herbicidal rate of 90% or more (almost completely withered)) | 4 (Herbicidal rate of 70% or more and less than 90%) | 0 (Herbicidal rate of 5% or less (almost no effect)) | 0 (Herbicidal rate of 5% or less (almost no effect)) | 0 (Herbicidal rate of 5% or less (almost no effect)) | 2 (Herbicidal rate of 20% or more and less than 40%) | 4 (Herbicidal rate of 70% or more and less than 90%) | herbicidal effect on D: Chinese sprangletop (Chinese sprangletop; [26]): 3 (Herbicidal rate of 40% or more and less than 70%); N: redroot pigweed, herbicidal effect rating (redroot pigweed [3]; [26]): 5 (Herbicidal rate of 90% or more (almost completely withered)); herbicidal effect on E: rice flat sedge (rice flat sedge; [26]): 5 (Herbicidal rate of 90% or more (almost completely withered)); F: southern crabgrass, herbicidal effect rating (southern crabgrass [8]; [26]): 0 (Herbicidal rate of 5% or less (almost no effect)); O: lambsquarters, herbicidal effect rating (lambsquarters [10]; [26]): 4 (Herbicidal rate of 70% or more and less than 90%); R: persian speedwell, herbicidal effect rating (persian speedwell [11]; [26]): 5 (Herbicidal rate of 90% or more (almost completely withered)); M: velvetleaf, herbicidal effect rating (velvetleaf [13]; [26]): 3 (Herbicidal rate of 40% or more and less than 70%); K: Italian ryegrass, herbicidal effect rating (Italian ryegrass [15]; [26]): 0 (Herbicidal rate of 5% or less (almost no effect)); G: green foxtail, herbicidal effect rating (green foxtail [17]; [26]): 0 (Herbicidal rate of 5% or less (almost no effect)); J: blackgrass, herbicidal effect rating (blackgrass [18]; [26]): 0 (Herbicidal rate of 5% or less (almost no effect)); H: barnyard grass, herbicidal effect rating (barnyard grass [19]; [26]): 0 (Herbicidal rate of 5% or less (almost no effect)); herbicidal effect on H: barnyard grass (barnyard grass [20]; [26]): 4 (Herbicidal rate of 70% or more and less than 90%); I: wild oat, herbicidal effect rating (wild oat [22]; [26]): 0 (Herbicidal rate of 5% or less (almost no effect)); P: chickweed, herbicidal effect rating (chickweed [24]; [26]): 5 (Herbicidal rate of 90% or more (almost completely withered)); L: windgrass, herbicidal effect rating (windgrass [25]; [26]): 0 (Herbicidal rate of 5% or less (almost no effect))

Source: patent publication US20230085307A1, “PYRIDAZINONE COMPOUND AND HERBICIDE” (NISSAN CHEMICAL CORPORATION, priority 2019, published 2023)
